{"source": "patent US20090318430A1", "about": "“MEDICAL USE OF CYCLIN DEPENDENT KINASES INHIBITORS” (ASTEX THERAPEUTICS LIMITED, priority 2006, published 2009)", "key": {"[1]": {"experiment": "Vapour sorption/desorption analysis", "assay_type": "physicochemical", "description": "Crystals of 4-(2,6-dichlorobenzoylamino)-1H-pyrazole-3-carboxylic acid (1-methanesulphonyl-piperidin-4-yl)-amide prepared by the recrystallisation method of Example 11 Step 8 were subjected to vapour sorption/desorption analysis in order to test for the propensity of this sample to form a hydrated state.\nApproximately 20 mg of sample was placed into a wire-mesh vapour sorption balance pan and loaded into an ‘IgaSorp’ vapour sorption balance (Hiden Analytical Instruments) held at 25+/−0.1° C. The sample was then dried by maintaining a 0% humidity environment (using mass flow control apparatus) until no further weight change was recorded. Subsequently, the sample was then subjected to a ramping profile from 0-90% relative humidity (% RH) at 10% RH increments, maintaining the sample at each step until equilibration had been attained (99.5% step completion).\nUpon reaching equilibration, the % RH within the apparatus was ramped to the next step and the equilibration procedure repeated. After completion of the sorption cycle, the sample was then dried using the same procedure. The weight change during the sorption/desorption cycles was then monitored, allowing for the hygroscopic nature of the sample to be determined."}, "[2]": {"biological_target": "T1, Cdk5/p35 enzyme (Upstate) (Homo sapiens, UniProt Q00535)", "T1 construct": "purchased Upstate", "T1 sequence (Q00535 whole entry)": "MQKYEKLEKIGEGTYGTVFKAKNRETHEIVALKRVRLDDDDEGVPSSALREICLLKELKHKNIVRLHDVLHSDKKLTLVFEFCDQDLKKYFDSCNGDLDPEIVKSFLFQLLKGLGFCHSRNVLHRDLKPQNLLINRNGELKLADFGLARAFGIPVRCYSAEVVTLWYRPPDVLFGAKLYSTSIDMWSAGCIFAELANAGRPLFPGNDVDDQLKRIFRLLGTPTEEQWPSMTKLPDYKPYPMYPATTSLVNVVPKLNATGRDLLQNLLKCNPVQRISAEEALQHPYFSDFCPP", "T1 sequence (Q15078 whole entry partner)": "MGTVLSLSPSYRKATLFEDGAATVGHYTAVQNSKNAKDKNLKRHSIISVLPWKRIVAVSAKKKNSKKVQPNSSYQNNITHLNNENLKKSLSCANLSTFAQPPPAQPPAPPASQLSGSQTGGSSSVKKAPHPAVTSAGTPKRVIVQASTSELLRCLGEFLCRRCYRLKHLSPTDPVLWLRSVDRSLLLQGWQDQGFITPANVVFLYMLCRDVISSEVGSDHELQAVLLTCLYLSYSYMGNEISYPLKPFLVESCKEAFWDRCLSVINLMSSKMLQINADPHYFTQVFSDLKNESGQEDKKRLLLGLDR", "experiment": "Alternative CDK5 assay (DELFIA, biotinylated histone H1 peptide)", "assay_type": "biochemical", "settings": "Cdk5/p35, ATP, 30 minutes at room temperature, TRF read-out", "procedure": "In a 96-well polypropylene plate add 5 μl of 5× test compound (in 12.5% DMSO) per well. Prepare an assay mix of 2.5 μM biotinylated histone H1 peptide (Bachem), 2.5 mM DTT in 1× assay buffer (10× assay buffer contains 250 mM Tris-HCl pH7.5, 2.5 mM MgCl2, 0.025 Brij-35, 0.1 mg/ml BSA. Add 10 μl of assay mix per well. Prepare the Cdk5/p35 enzyme (Upstate) at 0.625 nM in 1× assay buffer with 37.5 μM ATP on ice. Add 10 μl per well to start the reaction, seal with sealing film and incubate for 30 minutes at room temperature on a plate shaker. Stop the reaction by the addition of 100 μl stop buffer (1× Blocker BSA-Pierce, 0.05% surfact-AMPS-20, 100 mM EDTA). Shake plate for 1 minute. Transfer 100 μl of the stopped reaction to a black Neutravidin coated plate. Shake at room temperature for 30 minutes. Wash plate 5× with 200 μl TBS-Tween. Add 100 μl of anti-phospho cdk1-substrate antibody (Calbiochem) at 1:1500 in 1×DELFIA assay buffer (Perkin Elmer) to each well. Shake for 1 hour at room temperature. Wash plate 5× with 200 μl TBS-Tween. Add 100 μl of Eu-labelled anti-rabbit IgG at 1:300 in 1×DELFIA assay buffer per well. Shake for 1 hour at room temperature. Wash plate 5× with 200 μl TBS-Tween. Add 100 μl DELFIA enhancement solution (Perkin Elmer) per well and incubate 5 minutes on a plate shaker at <900 rpm. Read using TRF enabled fluorimeter at 335ex/620em."}, "[3]": {"test_system": "rat model of focal cerebral ischemia", "settings": "cited from earlier work"}, "[4]": {"experiment": "Solubility of the acid addition salt", "assay_type": "physicochemical"}, "[5]": {"test_system": "jck and cpk mouse models of PKD", "settings": "cited from earlier work"}, "[6]": {"test_system": "formalin-induced nociceptive responses in rats", "settings": "cited from earlier work"}, "polycystic cpk mice": {"test_system": "polycystic cpk mice", "settings": "cited from earlier work"}}, "note": "Structures can show the parent of a compound that is named as a salt.", "data": [{"compound": "CS(=O)(=O)N1CCC(NC(=O)c2n[nH]cc2NC(=O)c2c(Cl)cccc2Cl)CC1", "note": "[Example 12, 4-(2,6-dichloro-benzoylamino)-1H-pyrazole-3-carboxylic acid (1-methanesulphonyl-piperidin-4-yl)-amide]", "values": [{"measurement": "weight increase upon equilibration at 90% RH", "setting": "[1]; crystals, 25 °C, stepwise 0-90% relative humidity", "result": 0.24, "unit": "%"}, {"measurement": "hygroscopicity / hydrate formation", "setting": "[1]; storage in elevated humidity conditions", "result": "physically stable with regard to hygroscopicity"}, {"measurement": "IC50", "setting": "[2]", "result": "< 100", "unit": "nM"}]}, {"compound": "CN1CC[C@H](c2c(O)cc(O)c3c(=O)cc(-c4ccccc4Cl)oc23)[C@H](O)C1", "note": "[flavopiridol]", "values": [{"measurement": "neuronal death", "setting": "[3]", "result": "significantly reduce neuronal death"}]}, {"compound": "O=C(NC1CCNCC1)c1n[nH]cc1NC(=O)c1c(Cl)cccc1Cl", "note": "[methanesulphonic acid salt, 4-(2,6-dichlorobenzoylamino)-1H-pyrazole-3-carboxylic acid piperidin-4-ylamide methanesulphonate]", "values": [{"measurement": "solubility", "setting": "[4]; pH 4.6, aqueous buffer, buffer formed from acetic acid and sodium acetate, solution pH approximately 4.6", "result": "~35", "unit": "mg/mL"}, {"measurement": "water solubility", "setting": "[4]; water, qualitative statement", "result": "excellent water solubility"}]}, {"compound": "CC[C@H](CO)Nc1nc(NCc2ccccc2)c2ncn(C(C)C)c2n1", "note": "[roscovitine]", "values": [{"measurement": "cystic disease", "setting": "[5]", "result": "effective arrest of cystic disease"}, {"measurement": "formalin-induced nociceptive responses", "setting": "[6]", "result": "attenuate the formalin-induced nociceptive responses"}]}, {"compound": "CC(=O)O[C@H]1C(=O)[C@@]2(C)[C@H]([C@H](OC(=O)c3ccccc3)[C@]3(O)C[C@H](OC(=O)[C@H](O)[C@@H](NC(=O)c4ccccc4)c4ccccc4)C(C)=C1C3(C)C)[C@]1(OC(C)=O)CO[C@@H]1C[C@@H]2O", "note": "[taxol]", "values": [{"measurement": "progression of PKD and survival", "setting": "polycystic cpk mice", "result": "inhibit the progression of PKD and prolongs the survival"}]}]}
